We go through 36 molecules from patent publication US12428413B2 (CHDI Foundation, Inc., priority 2019, dated 2025).

The target of one experiment is human catalytic domain ROCK II protein (amino acids 5-554) with a N-terminal GST tag (Homo sapiens, UniProt O75116). Briefly: biochemical.
Chain of human catalytic domain ROCK II protein (amino acids 5-554) with a N-terminal GST tag (O75116 5-554): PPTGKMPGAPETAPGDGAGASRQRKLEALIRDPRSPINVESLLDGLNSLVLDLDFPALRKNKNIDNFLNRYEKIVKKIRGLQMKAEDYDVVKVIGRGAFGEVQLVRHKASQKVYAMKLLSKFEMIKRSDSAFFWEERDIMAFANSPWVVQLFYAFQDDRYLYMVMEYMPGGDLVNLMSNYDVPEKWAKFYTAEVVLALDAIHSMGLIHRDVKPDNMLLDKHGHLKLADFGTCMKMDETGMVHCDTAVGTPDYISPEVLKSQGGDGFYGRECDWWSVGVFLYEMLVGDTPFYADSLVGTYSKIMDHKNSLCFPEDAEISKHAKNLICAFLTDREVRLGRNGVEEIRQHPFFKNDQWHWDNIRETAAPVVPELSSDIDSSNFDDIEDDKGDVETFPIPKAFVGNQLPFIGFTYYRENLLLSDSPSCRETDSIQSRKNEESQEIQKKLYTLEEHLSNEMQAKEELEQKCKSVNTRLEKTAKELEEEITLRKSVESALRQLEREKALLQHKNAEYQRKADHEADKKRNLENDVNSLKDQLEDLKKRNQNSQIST
Conditions: not given
With `C[C@@H]1CN(c2ccnc(F)c2)CCN1C(=O)NCc1cccc2c1OC(F)(F)O2` [Example 5, (R)—N-((2,2-Difluorobenzo[d][1,3]dioxol-4-yl)methyl)-4-(2-fluoropyridin-4-yl)-2-methylpiperazine-1-carboxamide], the IC50 is 864 nM.

For another experiment, the system named is cellular ROCK activity (cofilin phosphorylation at Ser3) in A7r5 rat smooth muscle cells. Nature of the experiment: Cellular ROCK activity: cofilin (Ser3) phosphorylation, In-Cell Western assay. In kind it is cell-based. To be noted: Rattus norvegicus, A7R5, 1 h, 1 hour compound incubation, phospho-cofilin (Ser3), read-out: CELL_IC50. As for the experimental part: The potency of Rho-associated protein kinase (ROCK) inhibitors was quantified by measuring cofilin phosphorylation levels at Serine 3 (Ser3) as a measure of cellular ROCK activity by In-Cell Western assay. […] The assay plate was imaged and quantified on the Odyssey imager (LICOR Biosciences).
ROCK inhibitor compound plate preparation. […] Stock compounds and control are added directly to ECHO plate (Labcyte) by Janus.
A7r5 cell culture and plating. A7r5 cells were cultured according to standard cell culture protocols in A7r5 growth media (DMEM with Glutamax and 10% FBS). […] 45 μl of re-suspended A7r5 cells were plated at 3000 cells/well in a sterile, μclear, black, F-bottom, 384-well microplate (Greiner bio-one). Seeded cells allowed to settle in wells on the bench for 1 hour before incubation at 37° C., 5% CO2 overnight.
Assay reagent and antibody preparations. Wash buffer was prepared by addition of Tween-20 to Dulbecco's Phosphate Buffered Saline (DPBS) (1×) without calcium and magnesium to make 1% Tween-20 as final concentration. Blocking buffer was prepared by addition of TritonX-100 to SeaBlock buffer (ThermoFisher) to make 0.3% TritonX-100 as final concentration. […] Secondary antibody mix was prepared by diluting donkey anti-rabbit 800CW antibody (LICOR Biosciences) 1:1000 in SeaBlock buffer.
Assay procedure. Compound plate was diluted by addition of 19 μl/well compound dilution buffer (DMEM with Glutamax) using 125 μl 16-channel Matrix electronic pipette. 5 μl diluted compound was stamped from compound plate to assay plate containing A7r5 cells using Bravo (384-well head from Agilent) liquid handler and incubated at 37° C., 5% CO2 for 1 hour. Cells were fixed by addition of 5 μl 37% formaldehyde using 125 μl 16-channel Matrix electronic pipette and incubation for 20 min at room temperature. The assay plate was washed 5× with 60 μl/well wash buffer. […] Next, the assay plate was sealed, centrifuged at 1000 rpm for 5 seconds and incubated at 4° C. overnight on an orbital shaker at 300 rpm. […] The assay plate was centrifuged at 1000 rpm for 5 seconds and incubated on an orbital shaker at 300 rpm for 60 min at room temperature. Finally, assay plate was washed and wells left empty before measurement of 700 nm and 800 nm fluorescence intensities on Odyssey imager set at 4.0 mm focus offset.
In the case of `Cc1cc2c([C@@H](C)NC(=O)N3CCN(c4ccnc(F)c4)C[C@H]3C)cccc2o1` [Example 4, (R)-4-(2-Fluoropyridin-4-yl)-2-methyl-N—((R)-1-(2-methylbenzofuran-4-yl)ethyl)piperazine-1-carboxamide], the IC50 stood at 356 nM. In the case of `Cc1cnc2cccc([C@H](C)NC(=O)N3CCN(c4ccnc(F)c4)C[C@H]3C)n12` [Example 10, (R)-4-(2-Fluoropyridin-4-yl)-2-methyl-N—((S)-1-(3-methylimidazo[1,2-a]pyridin-5-yl)ethyl)piperazine-1-carboxamide], the IC50 was no less than 5000 nM. With `C[C@@H](NC(=O)N1CCN(c2ccncc2F)CC1)c1ccccc1Br` [Example 19, (R)—N-(1-(2-Bromophenyl)ethyl)-4-(3-fluoropyridin-4-yl)piperazine-1-carboxamide], the IC50 amounted to 1470 nM. Consider `C[C@@H](NC(=O)N1CCN(c2ccncc2F)CC1)c1ccc(F)cc1Cl` [Example 21, (R)—N-(1-(2-Chloro-4-fluorophenyl)ethyl)-4-(3-fluoropyridin-4-yl)piperazine-1-carboxamide], for which the IC50 was determined as 1780 nM. On to `C[C@@H](NC(=O)N1CCN(c2ccncc2F)CC1)c1cccc2ccn(C)c12` [Example 32, (R)-4-(3-fluoropyridin-4-yl)-N-(1-(1-methyl-1H-indol-7-yl)ethyl)piperazine-1-carboxamide], for which the IC50 came to 410 nM. As for `O=C(NCc1cccc2occc12)N1CCN(c2ccncc2F)CC1` [Example 38, N-(Benzofuran-4-ylmethyl)-4-(3-fluoropyridin-4-yl)piperazine-1-carboxamide], the IC50 was 761 nM. `C[C@@H]1CN(c2ccncc2F)CCN1C(=O)N[C@H](C)c1ccccc1Cl` [Example 42, (R)—N—((R)-1-(2-Chlorophenyl)ethyl)-4-(3-fluoropyridin-4-yl)-2-methylpiperazine-1-carboxamide]: the IC50 is 73 nM. `C[C@@H]1CN(c2ccncc2F)CCN1C(=O)N[C@H](C)c1ccccc1Br` [Example 45, (R)—N—((R)-1-(2-Bromophenyl)ethyl)-4-(3-fluoropyridin-4-yl)-2-methylpiperazine-1-carboxamide]: the IC50 worked out at 125 nM. Turning to `C[C@@H]1CN(c2ccncc2F)CCN1C(=O)N[C@H](C)c1cccc(F)c1Cl` [Example 47, (R)—N—((R)-1-(2-Chloro-3-fluorophenyl)ethyl)-4-(3-fluoropyridin-4-yl)-2-methylpiperazine-1-carboxamide], the IC50 turned out to be 131 nM. On the same count and under the same terms, under `C[C@H](NC(=O)N1CCN(c2ccncc2F)C[C@H]1C)c1cccc(F)c1Cl` [Example 48, (R)—N—((S)-1-(2-chloro-3-fluorophenyl)ethyl)-4-(3-fluoropyridin-4-yl)-2-methylpiperazine-1-carboxamide] stands 279 nM; under `COc1ccc(Cl)c([C@@H](C)NC(=O)N2CCN(c3ccncc3F)C[C@H]2C)c1` [Example 49, (R)—N—((R)-1-(2-Chloro-5-methoxyphenyl)ethyl)-4-(3-fluoropyridin-4-yl)-2-methylpiperazine-1-carboxamide], 164 nM.

For the molecule `COc1cc(F)cc([C@@H](C)NC(=O)N2CCN(c3ccncc3F)C[C@H]2C)c1` [Example 51, (R)—N—((R)-1-(3-Fluoro-5-methoxyphenyl)ethyl)-4-(3-fluoropyridin-4-yl)-2-methylpiperazine-1-carboxamide], the IC50 was 15.2 nM. In the case of `C[C@@H]1CN(c2ccncc2F)CCN1C(=O)N[C@H](C)c1cccnc1` [Example 52, (R)-4-(3-Fluoropyridin-4-yl)-2-methyl-N—((R)-1-(pyridin-3-yl)ethyl)piperazine-1-carboxamide], the IC50 was determined as 234 nM. Take `C[C@@H]1CN(c2ccncc2F)CCN1C(=O)N[C@H](C)c1cccc2nccn12` [Example 58, (R)-4-(3-fluoropyridin-4-yl)-N—((R)-1-(imidazo[1,2-a]pyridin-5-yl)ethyl)-2-methylpiperazine-1-carboxamide]: the IC50 is 17.6 nM. Regarding `Cc1cc2c([C@@H](C)NC(=O)N3CCN(c4ccncc4F)C[C@H]3C)cccc2o1` [Example 60, (R)-4-(3-Fluoropyridin-4-yl)-2-methyl-N—((R)-1-(2-methylbenzofuran-4-yl)ethyl)piperazine-1-carboxamide], the IC50 was 33.1 nM. As for `C[C@@H]1CN(c2ccncc2F)CCN1C(=O)N[C@H](C)c1cccc2ccn(C)c12` [Example 63, (R)-4-(3-Fluoropyridin-4-yl)-2-methyl-N—((R)-1-(1-methyl-1H-indol-7-yl)ethyl)piperazine-1-carboxamide], the IC50 came to 44.2 nM. `Cc1nc2c([C@@H](C)NC(=O)N3CCN(c4ccncc4F)C[C@H]3C)cccc2o1` [Example 69, (R)-4-(3-Fluoropyridin-4-yl)-2-methyl-N—((R)-1-(2-methylbenzo[d]oxazol-4-yl)ethyl)piperazine-1-carboxamide]: the IC50 was 104 nM.

As for `Cc1nc2c([C@H](C)NC(=O)N3CCN(c4ccncc4F)C[C@H]3C)cccc2o1` [Example 70, (R)-4-(3-Fluoropyridin-4-yl)-2-methyl-N—((S)-1-(2-methylbenzo[d]oxazol-4-yl)ethyl)piperazine-1-carboxamide], the IC50 came out at 3000 nM. Take `C[C@@H]1CN(c2ccncc2F)CCN1C(=O)NCc1cccc2c1OCO2` [Example 75, (R)—N-(Benzo[d][1,3]dioxol-4-ylmethyl)-4-(3-fluoropyridin-4-yl)-2-methylpiperazine-1-carboxamide]: the IC50 amounted to 150 nM. With `C[C@@H]1CN(c2ccncc2F)CCN1C(=O)NCc1cccc2occc12` [Example 76, (R)—N-(Benzofuran-4-ylmethyl)-4-(3-fluoropyridin-4-yl)-2-methylpiperazine-1-carboxamide], the IC50 was found to be 86.1 nM. On the same count and under the same terms, to `C[C@@H]1CN(c2ccncc2F)CCN1C(=O)NCc1cccc2c1cnn2C` [Example 79, (R)-4-(3-Fluoropyridin-4-yl)-2-methyl-N-((1-methyl-1H-indazol-4-yl)methyl)piperazine-1-carboxamide] belongs 2010 nM. `C[C@@H]1CN(c2ccncc2F)CCN1C(=O)NCc1cccc2ncccc12` [Example 80, (R)-4-(3-Fluoropyridin-4-yl)-2-methyl-N-(quinolin-5-ylmethyl)piperazine-1-carboxamide]: the IC50 was 75.5 nM. As to `CC[C@@H]1CN(c2ccncc2F)CCN1C(=O)N[C@H](C)c1cccc(OC)c1` [Example 83, (R)-2-Ethyl-4-(3-fluoropyridin-4-yl)-N—((R)-1-(3-methoxyphenyl)ethyl)piperazine-1-carboxamide], the IC50 amounted to 31.4 nM. With `COc1cccc([C@@H](C)NC(=O)N2CCN(c3ccnc(F)c3)CC2)c1` [Example 101], the IC50 turned out to be 871 nM. `C[C@@H](NC(=O)N1CCN(c2ccnc(F)c2)CC1)c1cccc2c1CCO2` [Example 102]: the IC50 is 198 nM.

With `C[C@@H](NC(=O)N1CCN(c2ccnc(F)c2)CC1)c1cccc2occc12` [Example 104], the IC50 was 830 nM.

Consider `C[C@@H]1CN(c2ccnc(F)c2)CCN1C(=O)N[C@H](C)c1cccc(OC(F)F)c1` [Example 108], for which the IC50 was 638 nM. Regarding `C[C@@H]1CN(c2ccnc(F)c2)CCN1C(=O)N[C@H](C)c1ccccc1Cl` [Example 109], the IC50 came to 1090 nM. In the case of `COc1cccc([C@@H](C)NC(=O)N2CCN(c3ccnc(F)c3)[C@@H](C)C2)c1` [Example 117], the IC50 stood at 107 nM. For the molecule `COc1cc(F)cc([C@@H](C)NC(=O)N2CCN(c3ccncc3F)CC2)c1` [Example 128], the IC50 was 163 nM.

As to `COc1cccc([C@@H](C)NC(=O)N2CCN(c3ccncc3F)C[C@H]2C)c1Cl` [Example 135], the IC50 was 1040 nM.

As for `COc1cccc([C@H](C)NC(=O)N2CCN(c3ccncc3F)C[C@H]2C)c1Cl` [Example 140], the IC50 was found to be 2620 nM. On to `C[C@@H](NC(=O)N1CCN(c2ccncc2F)[C@@H](C)C1)c1cccc2occc12` [Example 148], for which the IC50 was found to be 71.6 nM. Still for that read-out and setting: to `C[C@H]1CN(C(=O)NCc2cccc(OC(F)F)c2)CCN1c1ccncc1F` [Example 149] belongs 2740 nM; to `C[C@@H]1CN(c2c(F)cncc2F)CCN1C(=O)N[C@H](C)c1cccc2c1CCO2` [Example 156], 4.9 nM.
